Experimental data taken from BindingDB's records for doi:10.1016/j.bmcl.2006.10.030 (Paris-Sud University, 2007).

Target: Triosephosphate isomerase (Homo sapiens, UniProt P60174)
Test: Inhibition of triosephosphate isomerase

Chain of Triosephosphate isomerase (P60174 whole entry): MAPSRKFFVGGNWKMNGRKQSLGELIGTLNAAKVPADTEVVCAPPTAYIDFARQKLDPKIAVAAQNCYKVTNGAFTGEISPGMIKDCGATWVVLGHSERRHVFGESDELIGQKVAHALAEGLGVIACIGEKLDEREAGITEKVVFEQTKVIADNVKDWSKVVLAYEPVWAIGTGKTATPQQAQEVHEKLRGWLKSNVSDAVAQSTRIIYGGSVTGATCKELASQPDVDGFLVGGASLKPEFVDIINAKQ

| SMILES | Ki |
| --- | --- |
| NC(CC(=O)NO)P(=O)(O)O (stereo not given) [hydrogen [1-azaniumyl-2-(hydroxycarbamoyl)ethyl]phosphonate] | > 500 µM |
| N=C(COP(=O)(O)O)NO [Phosphoric acid mono-(N-hydroxycarbamimidoylmethyl) ester] | 4.5 µM |
| O=C(COP(=O)(O)O)NO [2-(hydroxyamino)-2-oxoethyl dihydrogen phosphate] | 3 µM |
| NNC(=O)COP(=O)(O)O [Phosphoric acid monohydrazinocarbonylmethyl ester] | 111 µM |
| O=C(CCP(=O)(O)O)NO [hydrogen 3-(hydroxyamino)-3-oxopropylphosphonate] | 160 µM |
